Where “and” joins values, the source holds several entries; their conditions need not be identical. Identical values can stand only once. Where only a bound is given, the exact number is not on record here.

This note sets out measurements from EPA's ToxValDB 9.5 (doi:10.2903/j.efsa.2008.187r).

For one data set, the system named is Apis mellifera. Particulars: acute, mortality.
Another data set has as its system Colinus virginianus. The settings on record: oral; for NOEL: short-term.
In another data set the test system is Daphnia magna. The settings on record: chronic/long-term; duration: 21 days; reproduction.
A further data set deals with Tagia sp. The settings on record: chronic/long-term; duration: 8 weeks.
The subject of another data set is Coturnix japonica. The settings on record: acute; oral; mortality.

On to `[Cl-].[Cu+2].[Cu+2].[OH-].[OH-].[OH-]` [Dicopper chloride trihydroxide], for which the LD50 was 44.3 µg/piece in the data set on Apis mellifera (dermal); 12.1 µg/piece with Apis mellifera (oral, unspecified); 511 mg/kg in the data set on Colinus virginianus (acute, mortality). For the same molecule, the LC50 in the data set with Colinus virginianus (acute, diet, mortality) amounted to 333 mg/kg-day. The values for the NOEC in the data set with Daphnia magna and in the data set on Tagia sp. were 0.0076 mg/L and under 15 mg/kg, respectively.
Turning to `O.O.[Cu]` [Copper hydroxide (Cu(OH)2)], the NOEL in the data set on Anas platyrhynchos (reproductive) was 7.05 mg/kg-day; in the data set with Anas platyrhynchos (short-term, oral, feed) it was 216 mg/kg-day and 191 mg/kg-day; with Colinus virginianus (diet), 124 mg/kg-day and 132 mg/kg-day. In addition, the LD50 is 223 mg/kg with Colinus virginianus (acute, mortality) and 556 mg/kg in the data set on Coturnix japonica.
The molecule `[Cu+].[Cu+].[O-2]` [Cuprous oxide] registered an NOEL with Colinus virginianus (diet) of 31.9 mg/kg-day. Besides, the LD50 with Coturnix japonica came to 1180 mg/kg.
